Measured values reported in patent US7094803B2, “Biologically active raspailamide compounds” (Harbor Branch Oceanographic Institution, Inc., priority 2003, dated 2006).

System: A549 human lung adenocarcinoma
Assay: Antiproliferative MTT assay, A549 human lung adenocarcinoma cell line
Format: cell-based
Settings: A549 adherent cells, 72-h exposure, cytotoxicity
Description: Raspailamide A (I) and B (II) were analyzed as to their effect on the proliferation of A549 human lung adenocarcinoma and P388 murine leukemia cell lines. P388 cells were obtained from Dr. R. Camalier, National Cancer Institute, Bethesda, Md., and A549 cells were obtained from American Type Culture Collection, Rockville, Md.
All cell lines are maintained in Roswell Park Memorial Institute (RPMI) medium 1640 supplemented with 100 U/mL penicillin 100 μg/ml streptomycin, 60 μg/ml L-glutamine, 18 mM HEPES, 0.05 mg/mL gentamycin and 10% fetal bovine serum. Cell lines are cultured in plastic tissue culture flasks and kept in an incubator at 37° C. in humidified air containing 5% CO2. […]
A volume of 75 μl of warm growth media containing 5 mg/ml MTT is added to each well, cultures returned to the incubator, and left undisturbed for 3 hours. To spectrophotometrically quantitate formation of reduced formazan, plates are centrifuged (900×g, 5 minutes), culture fluids removed by aspiration, and 200 μl of acidified isopropanol (2 ml concentrated HCl/iter isopropanol) added per well. The absorbance of the resulting solutions is measured at 570 nm with a plate reader (Spectra II (Tecan Laboratories). […]
The two standard drug controls (indicated above) are included in each assay to monitor the drug sensitivity of each of the cell lines and IC50 values are determined for each drug-cell combination.

Q: With `C=C/C=C/C(C)=C/C(C)C1CC(OC)CC(CC2OC(CC(C)/C=C/C(C)=C/CC(CC(O)CNC(=O)C(=C)OC)OC(N)=O)C(C)(O)CC2C)O1` (centres unmarked) [Raspailamide (II), Raspailamide B] as the compound, how does the IC50 read?
A: 0.018 ng/mL

Q: Which IC50 does the source give for `C=C(OC)C(=O)NCC(O)CC(C/C=C(C)/C=C/C(C)CC1OC(CC2CC(OC)CC(C(C)/C=C(C)/C=C/C=C/C)O2)C(C)CC1(C)O)OC(N)=O` (centres unmarked) [Raspailamide A (I), Raspailamide A] here?
A: 0.046 ng/mL
